Assay results from ChEMBL document CHEMBL1128650, “Non-peptide glycoprotein IIb/IIIa inhibitors. 6. Design and synthesis of rigid, centrally constrained non-peptide fibrinogen receptor antagonists” (Bioorg Med Chem Lett, 1995).

Test system: Endothelial cell
Assay: Inhibition of human umbilical vein endothelial cell adhesion to fibrinogen, vitronectin and fibronectin coated surfaces;NI means no inhibition at 300 uM
Format: functional, cell-based

Compound | inhibition
O=C(O)CCNC(=O)c1cc2n(c1)CCN(CCC1CCNCC1)C2=O | No inhibition

Target: Integrin alpha-IIb/beta-3 (Homo sapiens, UniProt P05106+P08514)
Assay: Inhibition of fibrinogen binding to glycoprotein alpha IIb beta-3 integrin of activated platelets

Integrin alpha-IIb/beta-3, sequence (P05106 27-788 limits assumed): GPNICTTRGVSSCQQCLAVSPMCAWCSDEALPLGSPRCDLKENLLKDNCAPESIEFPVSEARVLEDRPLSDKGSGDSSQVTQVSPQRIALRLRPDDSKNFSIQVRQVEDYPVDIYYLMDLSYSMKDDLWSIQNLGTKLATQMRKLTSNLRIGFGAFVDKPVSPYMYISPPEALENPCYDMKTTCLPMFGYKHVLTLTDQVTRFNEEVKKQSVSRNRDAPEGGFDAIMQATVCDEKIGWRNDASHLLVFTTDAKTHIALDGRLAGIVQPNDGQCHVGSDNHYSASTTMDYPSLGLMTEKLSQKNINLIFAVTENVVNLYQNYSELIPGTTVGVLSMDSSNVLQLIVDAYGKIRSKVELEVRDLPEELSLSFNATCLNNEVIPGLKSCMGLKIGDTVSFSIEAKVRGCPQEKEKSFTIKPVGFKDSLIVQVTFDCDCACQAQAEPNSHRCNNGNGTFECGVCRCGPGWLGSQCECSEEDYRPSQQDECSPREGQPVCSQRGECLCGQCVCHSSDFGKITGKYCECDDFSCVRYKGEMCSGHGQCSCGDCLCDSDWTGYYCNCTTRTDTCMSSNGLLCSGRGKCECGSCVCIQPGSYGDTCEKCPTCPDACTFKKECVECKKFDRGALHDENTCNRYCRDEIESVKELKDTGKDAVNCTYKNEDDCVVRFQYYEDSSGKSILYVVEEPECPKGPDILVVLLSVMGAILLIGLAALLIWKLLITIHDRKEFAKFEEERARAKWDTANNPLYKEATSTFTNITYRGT
Integrin alpha-IIb/beta-3, sequence (P08514 32-887 limits assumed): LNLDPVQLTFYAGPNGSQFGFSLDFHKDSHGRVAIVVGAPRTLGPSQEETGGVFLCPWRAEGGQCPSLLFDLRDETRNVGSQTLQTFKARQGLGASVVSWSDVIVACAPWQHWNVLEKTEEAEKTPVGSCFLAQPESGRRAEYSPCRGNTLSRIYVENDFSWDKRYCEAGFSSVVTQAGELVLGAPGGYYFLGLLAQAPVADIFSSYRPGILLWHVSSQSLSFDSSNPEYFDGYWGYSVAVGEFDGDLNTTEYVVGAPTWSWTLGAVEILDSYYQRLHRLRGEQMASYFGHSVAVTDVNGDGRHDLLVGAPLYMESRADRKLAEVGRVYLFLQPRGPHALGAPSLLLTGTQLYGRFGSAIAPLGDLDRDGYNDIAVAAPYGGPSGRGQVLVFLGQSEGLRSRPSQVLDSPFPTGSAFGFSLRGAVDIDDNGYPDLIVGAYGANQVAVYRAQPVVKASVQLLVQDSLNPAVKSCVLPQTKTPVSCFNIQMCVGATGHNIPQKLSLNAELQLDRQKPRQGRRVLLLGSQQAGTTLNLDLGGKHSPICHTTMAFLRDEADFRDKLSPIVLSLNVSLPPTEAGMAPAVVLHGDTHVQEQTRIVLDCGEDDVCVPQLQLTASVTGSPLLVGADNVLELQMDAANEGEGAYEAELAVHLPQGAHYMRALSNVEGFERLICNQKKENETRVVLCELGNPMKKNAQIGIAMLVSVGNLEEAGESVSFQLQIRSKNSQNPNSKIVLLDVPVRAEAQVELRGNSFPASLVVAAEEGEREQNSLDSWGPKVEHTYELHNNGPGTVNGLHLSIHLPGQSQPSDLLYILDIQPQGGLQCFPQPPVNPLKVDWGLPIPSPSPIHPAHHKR
Integrin alpha-IIb/beta-3, sequence (P08514 891-1039 limits assumed): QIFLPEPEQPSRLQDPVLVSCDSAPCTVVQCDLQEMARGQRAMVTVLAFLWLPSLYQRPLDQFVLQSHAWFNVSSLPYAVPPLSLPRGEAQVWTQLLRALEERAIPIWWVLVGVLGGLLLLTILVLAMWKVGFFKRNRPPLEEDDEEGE

Compound | IC50 [µM]
O=C(O)CCNC(=O)c1cn2c(c1-c1ccccc1)C(=O)N(CCC1CCNCC1)CCC2 | > 300
Cc1c(C(=O)NCCC(=O)O)cn2c1C(=O)N(CCC1CCNCC1)CC2 | 0.17
O=C(O)CCNC(=O)c1cc2n(n1)CCN(CCCC1CCNCC1)C2=O | 1.3
O=C(O)CCN1CCn2nc(C(=O)NCCC3CCNCC3)cc2C1=O | 31
O=C(O)CNC(=O)c1cc2n(n1)CCN(CCCC1CCNCC1)C2=O | 14
O=C(O)CCCNC(=O)c1cc2n(n1)CCN(CC1CCNCC1)C2=O | 15
O=C(O)CCNC(=O)c1cc2n(n1)CCN(CC1CCNCC1)C2=O | 45
O=C(O)CCNC(=O)c1cc2n(n1)CCN(CCC1CCNCC1)C2=O | 0.25
O=C(O)CCNC(=O)c1cc2n(c1)CCCN(CCC1CCNCC1)C2=O | 0.17
O=C(O)CCNC(=O)c1cc2n(c1)CCN(CCC1CCNCC1)C2=O | 0.079
Cc1c(C(=O)NCCC(=O)O)cn2c1C(=O)N(CCC1CCNCC1)CCC2 | 0.51
